Assay results reported in PubChem BioAssay AID342 (DTP/NCI, 2004).
Values joined by “and” are separate entries in the source; they are usually repeats but may differ in a detail not shown here. Identical values can stand only once. Numbered stars: 1 amine (or outer) side, 2 acyl side, 3 side chain; on linkers, the order of the positions; unused ones are H or OH. Bridge positions count the residues as written; N and C are the ends. Square brackets hold non-standard residues; d marks the D form. Peptide text beside a SMILES is read from it. I, II: the chains in the order shown. Actinocin(9to1) = Cc1c2oc3c(C)ccc(C(=O)[*:1])c3nc-2c(C(=O)[*:2])c(N)c1=O; aThr = C[C@H](O)[C@H](N)C(=O)O; NMeV = CN[C@H](C(=O)O)C(C)C; Sar = CNCC(=O)O

Tested on: Swiss mice, Sarcoma 180 sc, mean tumor weight T/C
Test: NCI In Vivo Anticancer Drug Screen. Data for tumor model Sarcoma 180 (subcutaneous) in Swiss mice
Conditions: endpoint: mean tumor weight, higher = larger tumour
Outline: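 Tumor-bearing mice, transplantable tumor; readout survival or tumor size; result = T/C, treated vs vehicle control.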

[1] = dose: 25.0 mg/kg/injection, schedule: Q01DX007 (ip), vehicle: carboxymethylcellulose (CMC)
[2] = dose: 50.0 mg/kg/injection, schedule: Q01DX007 (ip), vehicle: carboxymethylcellulose (CMC)

Cc1cc2nc3c(=O)[nH]c(=O)nc-3n(CCOC(=O)CCC(=O)O)c2cc1C was tested, and the T/C (dose: 14.37 mg/kg/injection, schedule: Q#A X014 (ip), vehicle: carboxymethylcellulose (CMC)) was 109 % of control, the T/C (dose: 28.75 mg/kg/injection, schedule: Q#A X014 (ip), vehicle: carboxymethylcellulose (CMC)) was 122 % of control and the T/C (dose: 57.5 mg/kg/injection, schedule: Q#A X014 (ip), vehicle: carboxymethylcellulose (CMC)) was 87 % of control. The T/C (dose: 115.0 mg/kg/injection, schedule: Q#A X014 (ip), vehicle: carboxymethylcellulose (CMC)) was 56 % of control.

For CCSCCC(N)C(=O)O (centres undefined), the T/C (dose: 9.37 mg/kg/injection, schedule: Q#A X014 (ip), vehicle: carboxymethylcellulose (CMC)) was 80 % of control, the T/C (dose: 18.2 mg/kg/injection, schedule: Q01DX007 (ip), vehicle: carboxymethylcellulose (CMC)) was 115 % of control and the T/C (dose: 18.75 mg/kg/injection, schedule: Q#A X014 (ip), vehicle: carboxymethylcellulose (CMC)) was 116 % of control. The T/C [1] was 102 % of control, the T/C (dose: 36.3 mg/kg/injection, schedule: Q01DX007 (ip), vehicle: carboxymethylcellulose (CMC)) was 98 % of control and the T/C (dose: 37.5 mg/kg/injection, schedule: Q#A X014 (ip), vehicle: carboxymethylcellulose (CMC)) was 40 % of control. The T/C [2] was 80 % of control, the T/C (dose: 72.5 mg/kg/injection, schedule: Q01DX007 (ip), vehicle: carboxymethylcellulose (CMC)) was 77 % of control and the T/C (dose: 75.0 mg/kg/injection, schedule: Q#A X014 (ip), vehicle: carboxymethylcellulose (CMC)) was 36 % of control. The T/C (dose: 90.0 mg/kg/injection, schedule: Q01DX007 (ip), vehicle: carboxymethylcellulose (CMC)) was 106 % of control, the T/C (dose: 100.0 mg/kg/injection, schedule: Q01DX007 (ip), vehicle: carboxymethylcellulose (CMC)) was 111 % of control and the T/C (dose: 108.0 mg/kg/injection, schedule: Q01DX007 (ip), vehicle: carboxymethylcellulose (CMC)) was 98 % of control. For the same compound, the T/C (dose: 145.0 mg/kg/injection, schedule: Q01DX007 (ip), vehicle: carboxymethylcellulose (CMC)) was 108 % of control, the T/C (dose: 216.0 mg/kg/injection, schedule: Q01DX007 (ip), vehicle: carboxymethylcellulose (CMC)) was 107 % of control and the T/C (dose: 432.0 mg/kg/injection, schedule: Q01DX007 (ip), vehicle: carboxymethylcellulose (CMC)) was 47 % of control.

[O]=[V] was tested, and the T/C (dose: 7.5 mg/kg/injection, schedule: Q01DX007 (sc), vehicle: olive oil, sesame oil, peanut oil) was 94 % of control, the T/C (dose: 15.0 mg/kg/injection, schedule: Q01DX007 (sc), vehicle: olive oil, sesame oil, peanut oil) was 89 % of control and the T/C (dose: 30.0 mg/kg/injection, schedule: Q01DX007 (sc), vehicle: olive oil, sesame oil, peanut oil) was 100 % of control.

For COS(C)(=O)=O, the T/C [1] was 89 % of control and the T/C [2] was 66 % of control.

In the case of COc1ccc2c(=O)cc(-c3ccccc3)n(C)c2c1, the T/C (dose: 50.0 mg/kg/injection, schedule: Q01DX007 (ip), vehicle: saline) is reported as 68 % of control, the T/C (dose: 100.0 mg/kg/injection, schedule: Q01DX007 (ip), vehicle: saline) is reported as 110 % of control and the T/C (dose: 200.0 mg/kg/injection, schedule: Q01DX007 (ip), vehicle: saline) is reported as 109 % of control. The T/C (dose: 400.0 mg/kg/injection, schedule: Q01DX007 (ip), vehicle: saline) was 76 % of control.

With Cc1c2oc3c(C)ccc(C(=O)N[C@@H]4C(=O)N[C@H](C(C)C)C(=O)N5CCC[C@H]5C(=O)N(C)CC(=O)N(C)[C@@H](C(C)C)C(=O)O[C@H]4C)c3nc-2c(C(=O)N[C@@H]2C(=O)N[C@H](C(C)C)C(=O)N3CCC[C@H]3C(=O)N(C)CC(=O)N(C)[C@@H](C(C)C)C(=O)O[C@H]2C)c(N)c1=O (I: [aThr][dV]P[Sar][NMeV] / II: [aThr][dV]P[Sar][NMeV]; ester I:1-I:C, II:1-II:C; linker I:N-II:N via Actinocin(9to1)) the T/C (dose: 4.0 mg/kg/injection, schedule: Q#A X014 (ip), vehicle: carboxymethylcellulose (CMC)) was 105 % of control, the T/C (dose: 7.5 mg/kg/injection, schedule: Q#A X014 (ip), vehicle: carboxymethylcellulose (CMC)) was 71 % of control and the T/C (dose: 12.0 mg/kg/injection, schedule: Q#A X014 (ip), vehicle: carboxymethylcellulose (CMC)) was 70 % of control. The T/C (dose: 15.0 mg/kg/injection, schedule: Q#A X014 (ip), vehicle: carboxymethylcellulose (CMC)) was 47 % of control and 71 % of control, the T/C (dose: 20.0 mg/kg/injection, schedule: Q#A X014 (ip), vehicle: carboxymethylcellulose (CMC)) was 51 % of control and the T/C (dose: 30.0 mg/kg/injection, schedule: Q#A X014 (ip), vehicle: carboxymethylcellulose (CMC)) was 13 % of control and 24 % of control.
